Assay results published in patent publication US11098041B2 (Merck Patent GmbH, priority 2014, dated 2021).

Tests used:
[1] = target: full-length human BTK (Homo sapiens (Human), UniProt Q06187); assay: Assay A: microfluidic off-chip mobility shift assay against BTK enzyme; assay type: biochemical
Description: Assay A: Microfluidic Off-Chip Mobility Shift Assay Protocol for Potency Assessment Against BTK Enzyme
The protocol below describes microfluidic, off-chip mobility shift kinase assay to measure inherent potency of compounds against BTK enzyme.
5 uL of enzyme buffer and 7.5 uL of ATP/kinKDR peptide substrate mix were added to Matrix (#115304) 384-well, sterile, polypropylene plates (Thermo Fisher Scientific, Hudson, N.H.) with 125 nL of serially diluted compounds prepared in 100% DMSO, and incubated for 90 min. at 27° C. Following the incubation period, reactions were stopped by adding 60 uL stop buffer consisting of 100 mM HEPES, pH 7.5, 0.015% Brij-35 (30%), 0.277% Coating Reagent #3 (Caliper Life Sciences, Mountain View, Calif.), 5% DMSO. Stopped reactions were monitored at −2 PSI, −3000 V/−700 V in a LabChip 3000 plate reader from Caliper Life Sciences, a PerkinElmer Company (Hopkinton, Mass.), and the activity was measured by off-chip mobility shift assay measuring the charge/mass difference between substrate and product resulting from peptide phosphorilation. IC50 and efficacy were determined by plotting log [Inhibitor] vs. % Activity in GeneData Screener (Basel. Switzerland).

[2] = target: BTK C481S (His-TEV-hsBTK(328-659)(C481S)) (Homo sapiens (Human), UniProt Q06187, C481S); assay: Assay B: microfluidic off-chip mobility shift assay against BTK C481S enzyme; assay type: biochemical; details: BTK C481S mutant
Description: The mechanics of the assay platform are described by the vendor (PerkinElmer, Hopkinton, Mass.) on their website at the following URL: http://caliperls.com.
5 uL of enzyme buffer and 7.5 uL of ATP/KinKDR peptide substrate mix were added to Matrix (#4315) 384-well, sterile, flat-bottom polypropylene plates (Thermo Fisher Scientific, Hudson, N.H.) with 125 nL of serially diluted compounds prepared in 100% DMSO, and incubated for 90 min. at 25° C. Following the incubation period, reactions were terminated by adding 65 uL quench buffer consisting of 100 mM HEPES, pH 7.5, 0.015% Brij-35 (30%), 0.277% Coating Reagent #3 (PerkinElmer, Mountain View, Calif.), 5% DMSO. Terminated reactions were monitored at −2 PSI, −3000 V/−700 Volts in a LabChip 3000 plate reader from Caliper Life Sciences, a PerkinElmer Company (Hopkinton, Mass.), and the activity was quantified by laser-induced fluorescence measuring the charge/mass difference between substrate and product resulting from peptide phosphorylation. IC50 and efficacy were determined by plotting log [Inhibitor] vs. % Activity in GeneData Screener (Basel, Switzerland).

Sequence of BTK C481S (His-TEV-hsBTK(328-659)(C481S)) (Q06187 328-659 C481S): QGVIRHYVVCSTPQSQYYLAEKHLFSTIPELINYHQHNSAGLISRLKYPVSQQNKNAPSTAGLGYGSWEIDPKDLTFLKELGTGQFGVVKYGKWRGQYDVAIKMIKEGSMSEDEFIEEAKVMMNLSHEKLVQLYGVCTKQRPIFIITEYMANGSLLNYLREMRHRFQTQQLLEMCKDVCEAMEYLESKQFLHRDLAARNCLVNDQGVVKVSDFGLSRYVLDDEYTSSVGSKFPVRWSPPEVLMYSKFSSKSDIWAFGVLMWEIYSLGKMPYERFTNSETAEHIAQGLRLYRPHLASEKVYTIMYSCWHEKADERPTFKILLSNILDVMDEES
Sequence of full-length human BTK (Q06187 whole entry): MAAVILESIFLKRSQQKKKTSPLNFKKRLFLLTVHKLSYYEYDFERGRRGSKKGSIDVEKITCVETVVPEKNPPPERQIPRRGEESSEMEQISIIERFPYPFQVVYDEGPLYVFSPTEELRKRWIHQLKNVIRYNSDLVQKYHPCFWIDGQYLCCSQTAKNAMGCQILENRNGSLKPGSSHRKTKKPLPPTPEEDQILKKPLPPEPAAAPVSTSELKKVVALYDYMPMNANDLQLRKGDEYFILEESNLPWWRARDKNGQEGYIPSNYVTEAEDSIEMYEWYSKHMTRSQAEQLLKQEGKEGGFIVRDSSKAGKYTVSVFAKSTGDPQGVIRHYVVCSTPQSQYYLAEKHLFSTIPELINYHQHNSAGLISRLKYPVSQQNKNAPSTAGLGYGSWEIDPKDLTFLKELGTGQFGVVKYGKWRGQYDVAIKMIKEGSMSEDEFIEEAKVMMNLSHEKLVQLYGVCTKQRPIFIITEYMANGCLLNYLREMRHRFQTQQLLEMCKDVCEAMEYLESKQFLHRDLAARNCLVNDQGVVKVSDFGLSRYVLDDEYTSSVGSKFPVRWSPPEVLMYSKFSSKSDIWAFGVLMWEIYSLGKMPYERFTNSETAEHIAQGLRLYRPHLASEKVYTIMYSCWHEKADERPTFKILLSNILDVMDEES

Row | IC50 [1] [nM] | IC50 [2] [nM] | SMILES
1 | < 100 | < 100 | COc1cccnc1-c1nc2c(-c3ccc(CNC(=O)c4nc(C(C)(C)C)no4)c(F)c3)ccnc2[nH]1 [Example 152, 3-(tert-butyl)-N-(2-fluoro-4-(2-(3-methoxypyridin-2-yl)-3H-imidazo[4,5-b]pyridin-7-yl)benzyl)-1,2,4-oxadiazole-5-carboxamide]
2 | < 100 | < 100 | COc1ncccc1-c1nc2c(-c3ccc(CNC(=O)c4nc(C(C)(C)C)no4)c(F)c3)ccnc2[nH]1 [Example 151, 3-(tert-butyl)-N-(2-fluoro-4-(2-(2-methoxypyridin-3-yl)-3H-imidazo[4,5-b]pyridin-7-yl)benzyl)-1,2,4-oxadiazole-5-carboxamide]
3 | < 100 | < 100 | Cn1cc(-c2nc3c(-c4ccc(Cn5ncc6cc(C(C)(C)C)cc(F)c6c5=O)c(F)c4)ccnc3[nH]2)cn1 [Example 99, 6-tert-Butyl-8-fluoro-2-{2-fluoro-4-[2-(1-methyl-1H-pyrazol-4-yl)-3H-imidazo[4,5-b]pyridin-7-yl]-benzyl}-2H-phthalazin-1-one]
4 | > 5000 | > 5000 | Cn1cc(-c2nc3c(-c4ccc5c(c4)CN(C(=O)c4nc(C(C)(C)C)no4)CC5)ccnc3[nH]2)cn1 [Example 155, (3-tert-Butyl-[1,2,4]oxadiazol-5-yl)-{7-[2-(1-methyl-1H-pyrazol-4-yl)-3H-imidazo[4,5-b]pyridin-7-yl]-3,4-dihydro-1H-isoquinolin-2-yl}-methanone]
5 | 100 to 1000 | 1000 to 5000 | Cn1cc(-c2nc3c(-c4ccc5c(c4)CN(C(=O)c4nc(C(C)(C)C)no4)C5)ccnc3[nH]2)cn1 [Example 156, (3-tert-Butyl-[1,2,4]oxadiazol-5-yl)-{5-[2-(1-methyl-1H-pyrazol-4-yl)-3H-imidazo[4,5-b]pyridin-7-yl]-1,3-dihydro-isoindol-2-yl}-methanone]
6 | < 100 | < 100 | COc1cccc(-c2nc3c(-c4cc(F)c(CNC(=O)c5noc(C(C)(C)C)n5)cc4C)ccnc3[nH]2)c1 [Example 78, 5-tert-Butyl-N-([2-fluoro-4-[2-(3-methoxyphenyl)-3H-imidazo[4,5-b]pyridin-7-yl]-5-methylphenyl]methyl)-1,2,4-oxadiazole-3-carboxamide]
7 | 1000 to 5000 | 100 to 1000 | CC(C)(C)c1nc(C(=O)NCc2ccc(-c3ccnc4[nH]c(C5CCNC(=O)C5)nc34)cc2F)no1 (stereo not shown) [Example 30, 5-tert-Butyl-[1,2,4]oxadiazole-3-carboxylic acid 2-fluoro-4-[2-(2-oxo-piperidin-4-yl)-3H-imidazo[4,5-b]pyridin-7-yl]-benzylamide]
8 | 1000 to 5000 | 100 to 1000 | CC(C)(C)c1noc(C(=O)NCc2ccc(-c3ccnc4[nH]c(C5CCNC(=O)C5)nc34)cc2F)n1 (stereo not shown) [Example 31, 3-tert-Butyl-[1,2,4]oxadiazole-5-carboxylic acid 2-fluoro-4-[2-(2-oxo-piperidin-4-yl)-3H-imidazo[4,5-b]pyridin-7-yl]-benzylamide]
9 | < 100 | < 100 | CC(C)(C)c1nnc(C(=O)NCc2ccc(-c3ccnc4[nH]c(-c5cnn(C6COC6)c5)nc34)cc2F)s1 [Example 125, 5-tert-Butyl-[1,3,4]thiadiazole-2-carboxylic acid 2-fluoro-4-[2-(1-oxetan-3-yl-1H-pyrazol-4-yl)-3H-imidazo[4,5-b]pyridin-7-yl]-benzylamide]
10 | 1000 to 5000 | 100 to 1000 | CC(C)(C)c1cc(C(=O)NCc2ccc(-c3ccnc4[nH]c(C5CCNC(=O)C5)nc34)cc2F)no1 (stereo not shown) [Example 29, 5-tert-Butyl-isoxazole-3-carboxylic acid 2-fluoro-4-[2-(2-oxo-piperidin-4-yl)-3H-imidazo[4,5-b]pyridin-7-yl]-benzylamide]
11 | < 100 | < 100 | Cn1cc(-c2nc3c(-c4ccc(CNC(=O)CCC(C)(C)C)c(F)c4)ccnc3[nH]2)cn1 [Example 21, 4,4-Dimethyl-pentanoic acid 2-fluoro-4-[2-(1-methyl-1H-pyrazol-4-yl)-3H-imidazo[4,5-b]pyridin-7-yl]-benzylamide]
12 | < 100 | < 100 | CC(C)(C)c1ccc(C(=O)NCc2ccc(-c3ccnc4[nH]c(C5CC5)nc34)cc2F)cc1 [Example 26, 4-tert-Butyl-N-[4-(2-cyclopropyl-3H-imidazo[4,5-b]pyridin-7-yl)-2-fluoro-benzyl]-benzamide]
13 | 100 to 1000 | < 100 | Cn1cc(-c2nc3c(-c4cnc(CNC(=O)c5nnc(C(C)(C)C)o5)c(F)c4)ccnc3[nH]2)cn1 [Example 13, 5-tert-Butyl-[1,3,4]oxadiazole-2-carboxylic acid {3-fluoro-5-[2-(1-methyl-1H-pyrazol-4-yl)-3H-imidazo[4,5-b]pyridin-7-yl]-pyridin-2-ylmethyl}-amide]

The next lines start with the molecule.

Row | SMILES | IC50 [1] [nM] | IC50 [2] [nM]
14 | Cn1cc(-c2nc3c(-c4ccc(CNC(=O)C5CC(OC(C)(C)C)C5)c(F)c4)ccnc3[nH]2)cn1 (stereo not shown) [Example 60, 3-(tert-Butoxy)-N-([2-fluoro-4-[2-(1-methyl-1H-pyrazol-4-yl)-3H-imidazo[4,5-b]pyridin-7-yl]phenyl]methyl)cyclobutane-1-carboxamide] | 100 to 1000 | 100 to 1000
15 | C[C@@H]1CN(c2ccc(-c3nc4c(-c5cccc(NC(=O)c6noc(C(C)(C)C)n6)c5CO)ccnc4[nH]3)cc2)C[C@H](C)O1 [Example 47, 5-tert-Butyl-N-[3-(2-[4-[(2R,6S)-2,6-dimethylmorpholin-4-yl]phenyl]-3H-imidazo[4,5-b]pyridin-7-yl)-2-(hydroxymethyl)phenyl]-1,2,4-oxadiazole-3-carboxamide] | 100 to 1000 | < 100
16 | Cc1cc(-c2ccnc3[nH]c(-c4cnn(C)c4)nc23)ccc1CNC(=O)C(N)=O [Example 101, N-{2-Methyl-4-[2-(1-methyl-1H-pyrazol-4-yl)-3H-imidazo[4,5-b]pyridin-7-yl]-benzyl}-oxalamide] | 1000 to 5000 | 1000 to 5000
17 | Cn1cc(-c2nc3c(-c4ccc(CN5CCOc6cc(C7CC7)cc(F)c6C5=O)cc4CO)ccnc3[nH]2)cn1 [Example 38, 8-Cyclopropyl-6-fluoro-4-[[3-(hydroxymethyl)0-4-[2-(1-methyl-1H-pyrazol-4-yl)-3H-imidazo[4,5-b]pyridin-7-yl]phenyl]methyl]-2,3,4,5-tetrahydro-1,4-benzoxazepin-5-one] | 100 to 1000 | 100 to 1000
18 | Cn1cc(-c2nc3c(-c4ccc(C5CCCN5C(=O)c5ccc(C(C)(C)C)cc5)cc4)ccnc3[nH]2)cn1 (stereo not shown) [Example 121, (4-tert-Butyl-phenyl)-(2-{4-[2-(1-methyl-1H-pyrazol-4-yl)-3H-imidazo[4,5-b]pyridin-7-yl]-phenyl}-pyrrolidin-1-yl)-methanone] | < 100 | < 100
19 | Cn1cc(-c2nc3c(-c4cccc(NC(=O)c5noc(C6CC6)n5)c4CO)ccnc3[nH]2)cn1 [Example 44, 5-Cyclopropyl-N-[2-(hydroxymethyl)-3-[2-(1-methyl-1H-pyrazol-4-yl)-3H-imidazo[4,5-b]pyridin-7-yl]phenyl]-1,2,4-oxadiazole-3-carboxamide] | 1000 to 5000 | < 100
20 | CC(C)(C)c1nc(C(=O)Nc2cccc(-c3ccnc4[nH]c(-c5ccc(C(=O)N6CCOCC6)cc5)nc34)c2CO)no1 [Example 45, 5-tert-Butyl-N-[2-(hydroxymethyl)-3-(2-[4-[(morpholin-4-yl)carbonyl]phenyl]-3H-imidazo[4,5-b]pyridin-7-yl)phenyl]-1,2,4-oxadiazole-3-carboxamide] | < 100 | < 100
21 | Cn1cc(-c2nc3c(-c4ccc(CO)c(F)c4)ccnc3[nH]2)cn1 [Example 32, {2-Fluoro-4-[2-(1-methyl-1H-pyrazol-4-yl)-3H-imidazo[4,5-b]pyridin-7-yl]-phenyl}-methanol] | 1000 to 5000 | 100 to 1000
22 | Cn1cc(-c2nc3c(-c4cccc(NC(=O)c5noc(C(C)(C)C)n5)c4CO)ccnc3[nH]2)cn1 [Example 43, 5-tert-Butyl-N-[2-(hydroxymethyl)-3-[2-(1-methyl-1H-pyrazol-4-yl)-3H-imidazo[4,5-b]pyridin-7-yl]phenyl]-1,2,4-oxadiazole-3-carboxamide] | 100 to 1000 | 100 to 1000
23 | CC(C)(C)c1ccc(C(=O)Nc2cccc(-c3ccnc4[nH]c(-c5ccc(C(=O)N6CCOCC6)cc5)nc34)c2CO)cc1 [Example 46, 4-tert-Butyl-N-[2-(hydroxymethyl)-3-(2-[4-[(morpholin-4-yl)carbonyl]phenyl]-3H-imidazo[4,5-b]pyridin-7-yl)phenyl]benzamide] | 1000 to 5000 | 1000 to 5000
